In patent US9493435B2, “IRE-1α inhibitors” (MannKing Corporation, priority 2009, dated 2016):

Assays:
[1] = tested on: XBP-1 splicing; assay: XBP-1 splicing in vivo in a model of ER stress (tunicamycin-treated SCID mice); set-up: species or system mouse; conditions: tunicamycin 1 mg/kg IP, 100, 50 or 25 mg/kg orally, 2 hour exposure, RT-PCR
Method: SCID mice were treated with tunicamycin 1 mg/kg IP. Compound no. 12-4 was administered orally two hours later at one of three doses: 100 mg/kg, 50 mg/kg, or 25 mg/kg (2 hour exposure) in 10% hydroxypropyl-beta-cyclodextrin (HPBCD). The total exposure to tunicamycin was 4 hours, and the total exposure to compound 12-4 was 2 hours.
Livers and kidneys were harvested and total RNA was prepared using Trizol. RT-PCR was performed using murine specific XBP1 primers flanking the 26-nt intron and products were separated on 4% agarose gel. The results are shown in FIG. 1B (liver) and FIG. 1C, in which each lane represents an individual mouse (n=4).

[2] = biological target: human IRE-1α (GST-IRE-1α) (Homo sapiens (Human), UniProt O75460); assay: IRE-1α assay (cleavage of mini-XBP-1 mRNA stem-loop substrate); type: biochemical; conditions: average IC50 for inhibition of IRE-1α in vitro
human IRE-1α (GST-IRE-1α), sequence (O75460 19-977): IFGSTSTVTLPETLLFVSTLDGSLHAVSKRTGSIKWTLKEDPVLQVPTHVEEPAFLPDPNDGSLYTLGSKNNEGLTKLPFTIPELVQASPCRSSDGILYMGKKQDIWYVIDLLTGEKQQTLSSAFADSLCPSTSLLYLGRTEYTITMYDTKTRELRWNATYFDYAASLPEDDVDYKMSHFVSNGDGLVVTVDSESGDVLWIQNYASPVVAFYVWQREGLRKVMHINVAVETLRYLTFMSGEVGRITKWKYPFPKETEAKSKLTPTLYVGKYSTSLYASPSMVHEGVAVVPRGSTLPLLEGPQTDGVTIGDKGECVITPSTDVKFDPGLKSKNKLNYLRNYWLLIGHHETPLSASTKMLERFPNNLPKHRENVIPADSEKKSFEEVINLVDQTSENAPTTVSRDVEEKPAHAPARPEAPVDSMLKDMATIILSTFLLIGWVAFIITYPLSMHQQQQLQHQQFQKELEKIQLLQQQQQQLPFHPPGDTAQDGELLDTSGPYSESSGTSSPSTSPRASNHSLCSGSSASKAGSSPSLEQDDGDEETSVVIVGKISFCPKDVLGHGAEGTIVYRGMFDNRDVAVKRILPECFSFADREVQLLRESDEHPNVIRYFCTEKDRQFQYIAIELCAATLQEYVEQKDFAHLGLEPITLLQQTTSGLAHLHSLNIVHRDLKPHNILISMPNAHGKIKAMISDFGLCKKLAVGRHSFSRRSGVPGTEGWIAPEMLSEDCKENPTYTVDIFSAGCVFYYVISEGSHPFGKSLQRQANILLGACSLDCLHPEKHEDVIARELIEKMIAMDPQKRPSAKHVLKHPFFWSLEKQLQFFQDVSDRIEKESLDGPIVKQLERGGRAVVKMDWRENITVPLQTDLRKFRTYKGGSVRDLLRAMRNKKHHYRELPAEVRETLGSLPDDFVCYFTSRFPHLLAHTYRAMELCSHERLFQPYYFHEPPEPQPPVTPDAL
In short: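 GST-IRE-1α from baculovirus-infected insect cells, in Hepes pH 7.5 buffer with KOAc, MgCl2, 3 mM DTT and 0.4% PEG. Compound added from 1 mM stock; Cy5-labelled mini-XBP-1 mRNA stem-loop substrate cleaved for one hour at 30° C. Read on a plate reader; percent IRE-1α activity derived.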

[3] = tested on: IRE-1α-mediated XBP-1 splicing in human myeloma MM.1s cells; assay: Cellular XBP-1 splicing assay in myeloma cells (RT-PCR); type: cell-based; conditions: Homo sapiens, MM1.S; average EC50, endogenous XBP-1 splicing in myeloma cells, DTT stress
In short: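 Human MM.1s myeloma cells incubated with compound with or without DTT as ER stressor, 2 h total; total RNA extracted and endogenous XBP-1 amplified by RT-PCR with primers flanking the 26-base intron. Ratio of unspliced to spliced XBP-1 quantified to give cellular EC50.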

[4] = tested on: human myeloma RPMI8226 tumor xenografts; assay: RPMI8226 xenograft efficacy model; type: in vivo, mouse; conditions: SCID mice bearing RPMI8226 xenografts, 0.75 mg/kg IV twice weekly
Method: SCID mice are implanted with tumor cells (human RPMI8226 myeloma cells) via IP, IV or SC routes based on the results from the xenograft model development studies (above). Mice are treated with compound or mock treated (vehicle) for a period of up to 4-5 weeks. Compound administration can be via IV, IP, PO or SC routes. In some cases, tunicamycin is administered via IP injection in order to stimulate stress in the animal. This stress mimics the stress an animal may undergo during times of tumor growth. The tunicaymycin injection mimics tumor growth during times of stress and permits evaluation of biomarkers which indicate the effectiveness of a compound (such as XBP-1 splicing) by RT-PCR, immunohistochemistry, or Western blots.
Mice are monitored for tumor growth, regression and general health. Tumors are collected and characterized by immunohistochemistry and/or FACS analysis. Tumor growth is measured by calipers, ultrasound, or by abdominal lavage. Biomarkers in the blood or tumor can evaluated (primarily XBP-1 splicing).
Tumor cells are cultured and injected IP, IV (tail vein) or SC (flank) in the mouse using a 21G needle in a volume of approx 100 μL. Mice are treated with compounds or vehicle alone as a control by IV, IP, SC or PO routes 5 days per week for up to 4-5 weeks. Blood is collected via retroorbital bleed (100 μA) at 2 time points (different eyes). […]

IC50 [2] [µM] | EC50 [3] [µM] | SMILES | inhibition of XBP-1 splicing in kidney ([1]; kidney) | inhibition of XBP-1 splicing in liver ([1]; liver) | tumor growth [4]
> 1 | > 10 | O=Cc1c(O)ccc2cc(OCC(=O)O)ccc12 [Compound 178] | – | – | –
< 1 | < 10 | N#Cc1ccc(Oc2ccc3c(C=O)c(O)ccc3c2)cc1 [Compound 181] | – | – | –

Second part, the molecule before the results:

SMILES | IC50 [2] [µM] | EC50 [3] [µM] | inhibition of XBP-1 splicing in kidney ([1]; kidney) | inhibition of XBP-1 splicing in liver ([1]; liver) | tumor growth [4]
Cc1nc(-c2ccc3c(C=O)c(O)ccc3c2)sc1C(=O)N1CCN(C)CC1 [Compound 12-4] | – | – | dose-dependent inhibition | dose-dependent inhibition | –
O=Cc1c(O)ccc2cc(Oc3ccc(C(=O)O)cc3)ccc12 [Compound 182] | < 0.1 | < 10 | – | – | –
CC(C)C[C@H](NC(=O)[C@H](Cc1ccccc1)NC(=O)c1cnccn1)B(O)O [bortezomib] | – | – | – | – | suppression of tumor growth
